Laboratory results published in patent US12371454B2, “Cyclic peptide compound having Kras inhibitory action” (priority 2019, dated 2025).
Starred links: 1 amine or outer side, 2 acyl side, 3 side chain; linkers in the order of their positions; H or OH if unused. Positions of bridges follow the written chain, without caps; N, C: chain ends. Non-standard residues stand in square brackets, D forms with d. Residues, ends and D or L forms follow the SMILES beside them. *: point of attachment. NMeAbu(3,3-F2-piperidino) = CN[C@@H](CCN1CCCC(F)(F)C1)C(=O)O; hPhe(3-Cl-4-CF3) = N[C@@H](CCc1ccc(C(F)(F)F)c(Cl)c1)C(=O)O; hPhe(3-F,4-CF3) = N[C@@H](CCc1ccc(C(F)(F)F)c(F)c1)C(=O)O; hPhe(4-CF3) = N[C@@H](CCc1ccc(C(F)(F)F)cc1)C(=O)O; NMePhe(4-Cl) = CN[C@@H](Cc1ccc(Cl)cc1)C(=O)O; NMePhe(4-Me) = CN[C@@H](Cc1ccc(C)cc1)C(=O)O; X33 = Cc1ccc(CC[C@H](N[*:1])C(=O)[*:2])cc1; NMeGly(cPent) = CN[C@H](C(=O)O)C1CCCC1; NMeCha = CN[C@@H](CC1CCCCC1)C(=O)O; NMeChg = CN[C@H](C(=O)O)C1CCCCC1; NMeF = CN[C@@H](Cc1ccccc1)C(=O)O; NMeI = CC[C@H](C)[C@H](NC)C(=O)O; NMeD = CN[C@@H](CC(=O)O)C(=O)O; NMeL = CN[C@@H](CC(C)C)C(=O)O; NMeNva = CCC[C@H](NC)C(=O)O; NMeV = CN[C@H](C(=O)O)C(C)C; d(β3hA) = C[C@@H](N)CC(=O)O; Iva = CC[C@](C)(N)C(=O)O; NMeA = CN[C@@H](C)C(=O)O; Piperidide = C1CCN(*)CC1; Pyrrolidide = C1CCN(*)C1; dNMeA = CN[C@H](C)C(=O)O; Ac5c = NC1(C(=O)O)CCCC1; Aze = O=C(O)[C@@H]1CCN1; Sar = CNCC(=O)O

Target: T1, Kras and SOS1 (biotin-tagged human Kras loaded with GDP, His-tagged human SOS1) (Homo sapiens, UniProt P01116, G12D)
T1 construct: made in house; host or cells: E. coli (stated for Kras only)
T1 sequence (P01116 1-188 isoform P01116-2 G12D): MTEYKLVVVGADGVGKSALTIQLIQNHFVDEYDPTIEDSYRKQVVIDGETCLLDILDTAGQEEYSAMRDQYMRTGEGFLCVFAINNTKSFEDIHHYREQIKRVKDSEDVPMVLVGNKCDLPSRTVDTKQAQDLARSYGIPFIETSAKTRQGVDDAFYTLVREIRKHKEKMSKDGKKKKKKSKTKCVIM
Assay: Protein-protein interaction inhibition between Kras and SOS1 (KrasGl2D-SOS PPI) using AlphaScreen
Assay type: binding
Conditions: AlphaScreen; biotin-tagged human Kras loaded with GDP, His-tagged human SOS1; read-out: KRAS G12D-SOS PPI IC50
How it was run: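 Donor beads (nickel) hold His-SOS1; acceptor beads (streptavidin) hold biotin-Kras bound to GDP. Signal measured at 520-620 nm following 680 nm excitation.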

Going from `CC[C@H](C)[C@@H]1NC(=O)[C@H](CC(C)C)N(C)C(=O)C[C@@H](C(=O)N(C)C)N(C)C(=O)[C@H]([C@@H](C)CC)N(C)C(=O)[C@H](C)NC(=O)[C@@H](C)NC(=O)[C@H](CCc2ccc(C(F)(F)F)c(Cl)c2)NC(=O)CN(C)C(=O)[C@H](Cc2ccc(C)cc2)N(C)C(=O)[C@@H]2CCN2C(=O)[C@H](C)N(C)C1=O` [Compound 382] ([NMeL]I[NMeA][Aze][NMePhe(4-Me)][Sar][hPhe(3-Cl-4-CF3)][dA]A[NMeI][NMeD]-NMe2; lactam N-11) to `CC[C@H](C)[C@@H]1NC(=O)[C@H](CC(C)C)N(C)C(=O)C[C@@H](C(=O)N2CCCCC2)N(C)C(=O)[C@H](C(C)C)N(C)C(=O)[C@](C)(CC)NC(=O)[C@@H]2CCCN2C(=O)[C@H](CCc2ccc(C(F)(F)F)c(Cl)c2)NC(=O)CN(C)C(=O)[C@H](CC2CCCCC2)N(C)C(=O)[C@@H]2CCN2C(=O)[C@H](C)N(C)C1=O` [Compound 394] ([NMeL]I[NMeA][Aze][NMeCha][Sar][hPhe(3-Cl-4-CF3)]P[Iva][NMeV][NMeD]-Piperidide; lactam N-11), the IC50 falls from 35 nM to 13 nM (2.7-fold).

Compared with `CC[C@H](C)[C@@H]1NC(=O)[C@H](C)N(C)C(=O)C[C@@H](C)NC(=O)[C@H](CC(C)C)N(C)C(=O)[C@H](CC2CCCCC2)N(C)C(=O)[C@@H]2CCCN2C(=O)[C@H](CCc2ccc(C(F)(F)F)cc2)NC(=O)CN(C)C(=O)[C@H](Cc2ccc(Cl)cc2)N(C)C(=O)CN(C)C(=O)CN(C)C1=O` [Compound 383] (cyclo(I[Sar][Sar][NMePhe(4-Cl)][Sar][hPhe(4-CF3)]P[NMeCha][NMeL][d(β3hA)][NMeA])), `CC[C@H](C)[C@@H]1NC(=O)[C@H](CC(C)C)N(C)C(=O)C[C@@H](C)NC(=O)[C@H](CC(C)C)N(C)C(=O)C2(CCCC2)NC(=O)[C@@H]2CCCN2C(=O)[C@H](CCc2ccc(C(F)(F)F)c(F)c2)NC(=O)CN(C)C(=O)[C@H](CC2CCCCC2)N(C)C(=O)CN(C)C(=O)CN(C)C1=O` [Compound 402] (cyclo([Ac5c][NMeL][d(β3hA)][NMeL]I[Sar][Sar][NMeCha][Sar][hPhe(3-F,4-CF3)]P)) is 10-fold lower in IC50: 260 nM for the first, 26 nM for the second.

Compared with `CC[C@H](C)[C@@H]1NC(=O)[C@H](CC(C)C)N(C)C(=O)C[C@@H](C(=O)N(C)C)N(C)C(=O)[C@H](C2CCCC2)N(C)C(=O)[C@H](C(C)C)NC(=O)[C@H](CCN2CCCC(F)(F)C2)N(C)C(=O)[C@H](CCc2ccc(C(F)(F)F)c(Cl)c2)NC(=O)CN(C)C(=O)[C@H](CC2CCCCC2)N(C)C(=O)[C@@H]2CCN2C(=O)[C@H](C)N(C)C1=O` [Compound 389] ([NMeL]I[NMeA][Aze][NMeCha][Sar][hPhe(3-Cl-4-CF3)][NMeAbu(3,3-F2-piperidino)]V[NMeGly(cPent)][NMeD]-NMe2; lactam N-11), `CCC[C@H]1C(=O)NC2(CCCC2)C(=O)N(C)[C@@H](C2CCCCC2)C(=O)N(C)[C@H](C(=O)N2CCCCC2)CC(=O)N(C)[C@@H](CC(C)C)C(=O)N[C@@H]([C@@H](C)CC)C(=O)N(C)CC(=O)N2CCC[C@H]2C(=O)N(C)[C@@H](CC2CCCCC2)C(=O)N(C)CC(=O)N[C@@H](CCc2ccc(C(F)(F)F)c(Cl)c2)C(=O)N1C` [Compound 392] ([NMeL]I[Sar]P[NMeCha][Sar][hPhe(3-Cl-4-CF3)][NMeNva][Ac5c][NMeChg][NMeD]-Piperidide; lactam N-11) is 3.8-fold lower in IC50: 45 nM for the first, 12 nM for the second. The second is the more potent here.

Going from `CCC[C@H]1C(=O)N[C@@H]([C@@H](C)CC)C(=O)N(C)[C@@H](C)C(=O)N2CC[C@H]2C(=O)N(C)[C@@H](CC2CCCCC2)C(=O)N(C)CC(=O)N[C@@H](CCc2ccc(C(F)(F)F)c(Cl)c2)C(=O)N2CCC[C@H]2C(=O)NC2(CCCC2)C(=O)N(C)[C@@H](C2CCCC2)C(=O)N(C)[C@H](C(=O)N2CCCCC2)CC(=O)N1C` [Compound 391, (5S,8S,11S,15S,18S,23aS,29S,35S,37aS)-8-((S)-sec-butyl)-29-(3-chloro-4-(trifluoromethyl)phenethyl)-35-(cyclohexylmethyl)-18-cyclopentyl-5,6,12,16,19,33,36-heptamethyl-15-(piperidine-1-carbonyl)-11-propyldocosahydro-2H,4H-spiro[azeto[2,1-u]pyrrolo[2,1-i][1,4,7,10,13,16,19,22,25,28,31]undecaazacyclotetratriacontine-21,1′-cyclopentan]-4,7,10,13,17,20,23,28,31,34,37(14H,22H)-undecaone] ([NMeNva]I[NMeA][Aze][NMeCha][Sar][hPhe(3-Cl-4-CF3)]P[Ac5c][NMeGly(cPent)][NMeD]-Piperidide; lactam N-11) to `CC[C@H](C)[C@@H]1NC(=O)[C@H](C)N(C)C(=O)C[C@@H](C)NC(=O)[C@H](C2CCCC2)N(C)C(=O)C2(CCCC2)NC(=O)[C@@H]2CCCN2C(=O)[C@H](CCc2ccc(C(F)(F)F)c(Cl)c2)NC(=O)[C@@H](C)N(C)C(=O)[C@H](C)N(C)C(=O)[C@@H]2CCN2C(=O)[C@H](C)N(C)C1=O` [Compound 396] (cyclo([Ac5c][NMeGly(cPent)][d(β3hA)][NMeA]I[NMeA][Aze][NMeA][dNMeA][hPhe(3-Cl-4-CF3)]P)), the IC50 rises from 0.4 nM to 220 nM (550-fold).

For `CC[C@H](C)[C@@H]1NC(=O)[C@H](C)N(C)C(=O)C[C@@H](C(=O)N2CCCC2)NC(=O)[C@H](CC(C)C)N(C)C(=O)[C@H](Cc2ccccc2)N(C)C(=O)[C@H](CC(C)C)NC(=O)[C@H](CCc2ccc(C)cc2)NC(=O)CN(C)C(=O)[C@H](Cc2ccc(Cl)cc2)N(C)C(=O)CN(C)C(=O)CN(C)C1=O` [Compound 398] ([NMeA]I[Sar][Sar][NMePhe(4-Cl)][Sar][X33]L[NMeF][NMeL]D-Pyrrolidide; lactam N-11), the IC50 was 120 nM.
